# From US6673937B2, “Syntheses and methods of use of new antimitotic agents” (The University of Pittsburgh, priority 2000, dated 2004)
# Assays:
# [1] = tested on: Bcl-2; assay: Bcl-2 phosphorylation immunoblot in MCF-7 cells; type: cell-based, human; settings: 3 or 10 μM
# Description: Attempts to determine the phosphorylation status of Bcl-2 in tsFT210 cells using two different antibodies were unsuccessful due to the antibodies' inability to detect mouse Bcl-2 or the lack of specificity. Therefore, phosphorylated and non-phosphorylated Bcl-2 was detected in lysates from human MCF-7 cells (American Type Culture Collection, Manassas, Va.) treated with microtubule perturbing agents. Equal amounts of protein were separated by electrophoresis on 15% SDS-PAGE followed by immunoblotting with an antihuman Bcl-2 antibody (sc-509, Santa Cruz Biotechnology). Positive antibody reactions were visualized using peroxidase-conjugated secondary antibodies (Jackson ImmunoResearch, West Grove, Pa.) and an enhanced chemiluminescence detection system (Renaissance, NEN, Boston, Mass.) according to manufacturer's instructions.
# All known microtubule disrupting compounds cause hyperphosphorylation of the antiapoptotic protein Bcl-2 (Haldar S, Jena N and Croce CM (1995) Inactivation of bcl-2 by phospliorylation. Proc Natl Acad Sci USA 92:4507-4511 and Basu A and Haldar S (1998) Microtubule-damaging drugs trigger bcl2 phosphorylation-requirement of phosphorylation on both serine-70 and serine-87 residues of bcl2 protein. Intl J Oncol 13:659-664). Therefore, the phosphorylation status of Bcl-2 in cells treated with various compounds including SR-7 was examined and the results are illustrated in FIG. 29. Proteins from lysates of MCF-7 cells treated with 0.5 μM paclitaxel, 1 μM nocodozole, 1,μM vincristine and, 3 or 10 μM SR-7 were separated by electrophoresis on 15% SDS-PAGE followed by immunoblotting with an antibody to Bcl-2. The phosphorylated form of Bcl-2 (P) appeared as the upper bands and the underphosphorylated form (U) was the lower band.
# [2] = tested on: tsFT210 cells; assay: Flow cytometry, G2/M arrest in tsFT210 cells; type: cell-based, mouse; settings: 2.5 to 10 μM, 6 hours after release at 32.0° C.
# Protocol: Oncogene 18:6989-6996, Th′ng JP, Wright PS, Hamaguchi J, Lee MG, Norbury CJ, Nurse P and Bradbury EM (1990) The FT210 cell line is a mouse G2 phase mutant with a temperature-sensitive CDC2 gene product. Cell 63:313-324.). Cell proliferation was blocked at G2 phase by incubation at 39.4° C. for 17 h. The synchronized cells were then released by re-incubating at 32.0° C. and treated immediately with 0-10 μM SR-7, 1 μM nocodazole or 100 EM SC-ααδ9, respectively, to probe for G2/M arrest. […] The harvested cells were stained with a solution containing 50 μg/ml propidium iodide and 250 μg/ml RNase A. Flow cytometry analysis was conducted with a Becton Dickinson FACS Star (Franklin Lakes, N.J.). […] This G2/M retention at 4C is probably due to the extended cell cycle blockage at 39.4° C. (Osada H, Cui CB, Onose R and Hanaoka F (1997) Screening of cell cycle inhibitors from microbial metabolites by a bioassay using a mouse cdc2 mutant cell line, tsFT210. Bioorg Med Chem 5:193-203). […] SC-ααδ9 is an inhibitor of the Cdc25 family of phosphatases that controls cell cycle checkpoints (Rice RL, Rusnak JM, Yokokawa F, Yokokawa S, Messner DJ, Boynton AL, Wipf P and Lazo JS (1997) A targeted library of small molecule, tyrosine and dual specificity phosphatase inhibitors derived from a rational core design and random side chain variation. Biochemistry 36:15965-15974).
# [3] = target: T1, PTPIB (Homo sapiens, UniProt P18031); assay: In vitro inhibition of PTPIB; type: biochemical; settings: 30 μM, data not shown
# T1 sequence (P18031 1-435): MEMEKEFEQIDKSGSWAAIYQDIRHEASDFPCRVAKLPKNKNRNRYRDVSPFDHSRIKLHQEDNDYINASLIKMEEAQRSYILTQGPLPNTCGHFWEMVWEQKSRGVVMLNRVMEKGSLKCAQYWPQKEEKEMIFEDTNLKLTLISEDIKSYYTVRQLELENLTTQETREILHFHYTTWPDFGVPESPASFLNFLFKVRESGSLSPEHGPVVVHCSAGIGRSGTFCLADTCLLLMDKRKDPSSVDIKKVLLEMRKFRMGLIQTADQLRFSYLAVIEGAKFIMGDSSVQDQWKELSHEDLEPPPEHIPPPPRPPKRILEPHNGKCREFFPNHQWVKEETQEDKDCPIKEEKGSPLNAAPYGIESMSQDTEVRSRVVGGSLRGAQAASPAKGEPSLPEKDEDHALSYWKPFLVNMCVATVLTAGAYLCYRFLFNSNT
compound,measurement,setting,value
"O=C1C=CC2(Oc3cccc4cccc(c34)O2)c2cccc(OCc3ccco3)c21 [SR-7, 8-(furan-2-ylmethoxy)-1-oxo-1,4-dihydronaphthalene-4-spiro-2′-naphto [1″,8″-de][1′,3′] dioxin]",Bcl-2 phosphorylation,[1],failed to generate significant hyperphosphorylated Bcl-2
same,G2/M cell cycle transition,[2],concentration-dependent arrest in the G2/M phase
same,G2/M cell cycle transition,[2]; listed as 27,can arrest mammalian cells in the G2/M phase
same,inhibition of PTPIB activity,[3],no inhibition
